One test deals with soybean seedlings. Kind of test: Soybean seedling response to spot infiltrated auxins and conjugates. For 1st trifoliate leaf curl: key: 0 = no phenotype; +/− = threshold. For Chlorotic lesion @ app. Pnt: key: 0 = no phenotype; +/− = threshold. The test is classed as in vivo. Set-up: 1st trifoliate leaf curl / Epinasty score: key: 0 = no phenotype; +/− = threshold. The settings on record: for 1st trifoliate leaf curl / Chlorotic lesion @ app. Pnt / Epinasty score: spot infiltration; for Plant response phenotype, soybean: 1, 2.5 and 5 mM, result in words. The protocol:
Conjugate forms of auxinic compounds when applied through spot infiltration, a needleless method to introduce exogenous agents into plant cells. Initially, various concentrations of analytical grade (98%+pure) IAA, 2,4-D, and dicamba were prepared as solutions that were applied directly to uni-foliate leaves of 9 day old soybean seedlings by spot infiltration in order to determine the range of auxinic response and severity.
Spot infiltration comprises applying a compound to be tested in composition that is applied to the surface of a plant, for example, to a leaf or other plant structure. For example, a method for testing a plant response to one or more compounds using spot infiltration comprises a) providing a composition comprising one or more compounds to be tested in a container having at least an opening for the compound enter and/or exit, and one or more elements for moving the composition into or out of the container; b) contacting at least one opening of the container with the surface of a plant and moving the composition comprising one or more compounds to at least the surface of the plant. A container and elements for moving the composition may comprise a syringe body and plunger. Moving the composition to the plant surface comprises contacting the surface with pressure sufficient for the composition to enter the cells of the plant. In an aspect, spot filtration testing comprises measuring an effect of the composition on the contacted plant and comparing that measure or effect to a plant that is not contacted with the composition.
Plant response phenotypes were documented at one day post-spot infiltration and subsequently every other day, up to nine days post treatment. […] In the studies described herein below, 5 replicate treatments for each conjugate form were conducted, along with appropriate negative controls.
(§1) Examples 9 and 10 utilized a spot infiltration method for the delivery of an herbicide directly to leaves of a plant. The method generally allows for the directed delivery of a variety of agents to a localized area of a plant, e.g. localized region of leaves, for screening or assessment purposes, e.g. to quickly assess the response of a plant to the agent. As used in the foregoing examples, the spot infiltration method was used to introduce specific herbicides or specific conjugates of the herbicides to seedling plant leaves. Following introduction of the herbicide or the appropriate conjugate, plants were observed daily for nine days for characteristics of epinasty, trifoliate leaf curly, chlorosis, and new growth recovery.
(§2) Briefly, a solution of the desired agent is prepared of the desired agent, e.g. as described above in Example 10, solutions (5% EtOH) of 1, 2.5 and 5 mM IAA. The solution is then drawn into a 1 mL BD™ slip-tip syringe, bulk, non-sterile syringe (e.g. Becton, Dickinson and Company, Product No. 301025) with 100 μL markings. The desired volume is then applied to the leaf, e.g. as described in Examples 9 and 10, with the tip of the syring against the leaf and positive pressure applied to the syringe plunger. Sufficient pressure is applied in order to infuse the area beneath the syringe opening, but not so much pressure as to cause a visible-to-the-eye puncture or hole to form in the leaf. Some run-off of solution around the syringe opening is expected. In the foregoing examples, two spots were applied to each of two leaves per seedling for soybean plants. […] In soybean, both spots per leaf were at the distal portion of the leaf about 1-2 cm apart. When the method was applied to Arabidopsis, two developmentally intermediate aged leaves were chosen per plant, and one spot infiltration was carried out per leaf.

Test [1] relates to Arabidopsis ecotype Col-0 plant. Put plainly: Arabidopsis response to spot infiltrated auxins and conjugates. The format is in vivo, Arabidopsis thaliana. To be noted: result in words. The protocol:
The effect of auxin conjugates was assessed using Arabidoposis (Arabidopsis thialiana) ecotype Col-0 plant. Prior to studies utilizing the auxin conjugates, levels of analytical grade (98%+pure) IAA, 2,4-D and dicamba in solution were applied at various concentrations directly to developmentally similar leaves of 20-23 day old Arabidopsis seedlings by needleless syringe spot infiltration methodology, in order to determine range of auxinic response and severity. Phenotypes were documented relative to control at 1 day post-spot infiltration and subsequently every other day, up to nine days post treatment. Three concentrations were chosen based on reproducibility, and conjugated forms were then studied with 4 or more replicate treatments for each, along with appropriate negative controls (H2O and 10% EtOH).
as §1, §2
Generally, for Arabidopsis, the two leaves were chosen from opposite sides of rosette. In general, the spot infiltration method is carried out on younger plants in order to minimize experimental footprint and to maintain developmental uniformity. However, the method is not limited to use on young plants and can be easily applied to older plants as determined by the goals of a particular experiment.

Test [2] is described as follows: LC-MS assay of GH3 conjugation of IAA with Asp or Glu. The format is biochemical. To be noted: LC-MS; for Detected auxin conjugates: IAA-Asp: IAA with Asp; for Detected auxin conjugates: IAA-Glu: IAA with Glu. Put shortly:
(§3)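 N-terminal His-tagged GH3 homologs, expressed in E. coli C41(DE3) and Ni-NTA purified, at 44 to 164 μg/mL incubated 3 h at 30 °C in 20 mM Tris-HCl pH 8.0, 5 mM MgCl2, 1 mM DTT, 5 mM ATP, 5 mM auxin (IAA, 2,4-D or dicamba) and 5 mM Asp or Glu. Conjugates quantified by LC-MS against standards after MeOH precipitation; kinetics from Michaelis-Menten fits of initial velocities.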

Test [3] is described as follows: LC-MS assay of GH3 conjugation of 2,4-D with Asp or Glu. The format is biochemical. The settings on record: LC-MS; for Detected auxin conjugates: 2,4-D-Asp: 2,4-D with Asp; for Detected auxin conjugates: 2,4-D-Glu: 2,4-D with Glu. The method, boiled down:
as §3

Test [4] in a line: LC-MS assay of GH3 conjugation of dicamba with Asp or Glu. The test is classed as biochemical. To be noted: LC-MS; for Detected auxin conjugates: Dicamba-Asp: dicamba with Asp; for Detected auxin conjugates: Dicamba-Glu: dicamba with Glu. Put shortly: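 GH3 superfamily homologs, found by Blast searches of public databases using AtGH3.17 (Q9FZ87), were synthesized with E. coli-optimized codons and an N-terminal his-tag, expressed in OverExpress C41(DE3) cells after 0.2 mM IPTG induction at 16° C., and Ni-NTA purified. Conjugation of dicamba with Asp or Glu was measured by LC-MS using conjugate standards.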

[5] abbreviates: 1, 2.5 and 5 mM, all test levels.

On to `O=C(O)Cc1c[nH]c2ccccc12` [IAA, indole-3-acetic acid], for which the “1st trifoliate leaf curl” value in the test on soybean seedlings (1.0 mM), in the test on soybean seedlings (2.5 mM) and in the test with soybean seedlings (5.0 mM) was 0 in each case. In addition, the “Chlorotic lesion @ app. Pnt” value in the test on soybean seedlings (1.0 mM), in the test on soybean seedlings (2.5 mM) and in the test on soybean seedlings (5.0 mM) was 0 each time. Besides, the “Plant response phenotype, soybean” value in the test on soybean seedlings was “modest stem twisting and bending (epinasty)”. Further, in test [1] (5 mM (high dose), 1-2 days post treatment), the “Phenotype, Arabidopsis” value was “modest petiole twisting (epinasty) and leaf curl”.

In the case of `O=C(O)CC[C@H](NC(=O)Cc1c[nH]c2ccccc12)C(=O)O` [IAA-Glu], in the test on soybean seedlings (1.0 mM), the “1st trifoliate leaf curl” value is given as 0, the “Chlorotic lesion @ app. Pnt” value was determined as 0 and the Epinasty score turned out to be 0. Also, in the test on soybean seedlings (2.5 mM), the “1st trifoliate leaf curl” value is recorded as 0, the “Chlorotic lesion @ app. Pnt” value is listed as 0 and the Epinasty score is given as 0. Besides, in the test with soybean seedlings (5.0 mM), the “1st trifoliate leaf curl” value was found to be 0, the “Chlorotic lesion @ app. Pnt” value stood at 0 and the Epinasty score is recorded as 0. Besides, the “Plant response phenotype, soybean” value with soybean seedlings was “No discernable phenotype”. For the same molecule, the “Phenotype, Arabidopsis” value in test [1] (setting [5]) is recorded as “No discernable phenotype”.

As for `O=C(O)C[C@H](NC(=O)Cc1c[nH]c2ccccc12)C(=O)O` [IAA-Asp], in the test with soybean seedlings (1.0 mM), the “1st trifoliate leaf curl” value came out at 0, the “Chlorotic lesion @ app. Pnt” value is on record as 0 and the Epinasty score amounted to 0. In the test with soybean seedlings (2.5 mM), the “1st trifoliate leaf curl” value came out at 0, the “Chlorotic lesion @ app. Pnt” value was found to be 0 and the Epinasty score is 0. Also, in the test with soybean seedlings (5.0 mM), the “1st trifoliate leaf curl” value is 0, the “Chlorotic lesion @ app. Pnt” value is reported as 0 and the Epinasty score is listed as 0. In the test with soybean seedlings, the “Plant response phenotype, soybean” value is “No discernable phenotype”. Moreover, the “Phenotype, Arabidopsis” value in test [1] (setting [5]) is reported as “No discernable phenotype”.

B1: OsGH3-12: GH3 protein, accession Q53P49 (protein, listed as Oryza sativa)
chain: MLEKEGKLIMSREDEEIMAWFERTTRDAADVQRETLRRILAENAGVEYLRELGLAGLTDAGSFRARVPVVTHADLDPYIQRVADGDASPVLTAKPVTAISLSSGTTQGKRKRLLFNDDLLRSSIRFFHASYAFTNRAFPVEDGRVLQFMYGSRHETTKGGLTATTVMTNLLRSEEFTASMAARSRPRLPSCSPSEVVFSPDFDESLYCHLLCGLLLAGEVRAVSASFAHSIVVALQALERVWRELCADIRRGAASPARVTTPAVRRAVAPILAAPNPALADALERRCAALGDWSGVIPALWPNARYVQATMTGSMEHYVKKLRHYAGGVPLVSGNYASSEGVIGINAEQHAPPESVVFTVLPDAAYFEFIPLKPPCTDAAADDDNPAAAGSSCYVDADDANPVGLTDVVVGEHYEVVMTTFTGLYRYRLGDVVKVAGFHHATPKLRFVCRRSLILSINVDKNSEHDLQLAVDSAAKILAGDGENHKQLEIADYTSHADTSSDPGHYVVFWELNGGGEEDGGGVLQRCCDEMDRAFGADAGYAQSRKTCAIGALELRVLRRGAFQEVLRHYVAGGSSAGQFKMPRCVAPSNAGVLRVLKDNTINIFFSTAYDYD
Turning to B1, in test [2], the “Detected auxin conjugates: IAA-Asp” value is on record as “No” and the “Detected auxin conjugates: IAA-Glu” value is “No”. Moreover, in test [3], the “Detected auxin conjugates: 2,4-D-Asp” value is listed as “No” and the “Detected auxin conjugates: 2,4-D-Glu” value is “No”. Besides, in test [4], the “Detected auxin conjugates: Dicamba-Asp” value is recorded as “No” and the “Detected auxin conjugates: Dicamba-Glu” value is “No”.

B2: OsGH3-3: GH3 protein, accession EEE54131 (protein, listed as Oryza sativa)
chain: MLEKKATRSTRVDGVSGEAVIEEFERVTRDAANVQRETLRRILAENGGVEYLRGLGLAGATDPATFRARVPLATHADLEPYIDRIADGDASPVLTAKPATSISLSSGTTQGKRKYLLFNEELVKSTMQIYRISYAFRNREFPVENGKALQFIYSSRETRTKGGLTATTATTNVYRSEEFKATMRDIQSQCCSPDEVIFGPDFAQSLYCHLLAGLLAAGDVQIVSATFAHSVVLAFQTFERAWEDLCADIRRGEVSPSRVTSPAVRRAMAALLAAPNPGLADEVARKCAALSNWYGVIPALWPNARYVYGIMTGSMEHYVKKLRHYAGGLPLVAAEYGASEGWVGANVEPGTPPERATFTVLPDIAYFEFIPLKPVAGDGGYAEAEPVGLTEVAAGELYEVVMTTFAGLYRYRLGDVVKVAGFYNATPKLKFVCRRNLMLSINIDKNSEQDLQLAVDAAARAVLAGEKLEVVDYTSHADVSSDPGHYVVFLELNAADPAAVDGDVMQACCDELDRAFADAGYVGSRKSGAIAPLELRVLQRGTFQKVLRHYLSLGAPVSQFKSPRCVSRSNSGVLQILAGCTVNVFFSSAYD
As to B2, in test [2], the “Detected auxin conjugates: IAA-Asp” value was “Yes” and the “Detected auxin conjugates: IAA-Glu” value is reported as “No”. For the same molecule, in test [3], the “Detected auxin conjugates: 2,4-D-Asp” value was “No” and the “Detected auxin conjugates: 2,4-D-Glu” value is given as “No”. Besides, in test [4], the “Detected auxin conjugates: Dicamba-Asp” value is listed as “No” and the “Detected auxin conjugates: Dicamba-Glu” value is “No”.

B3: AtGH3-11: GH3 protein, accession AAD23040 (protein, listed as Arabidopsis thaliana)
chain: MLEKVETFDMNRVIDEFDEMTRNAHQVQKQTLKEILLKNQSAIYLQNCGLNGNATDPEEAFKSMVPLVTDVELEPYIKRMVDGDTSPILTGHPVPAISLSSGTSQGRPKFIPFTDELMENTLQLFRTAFAFRNRDFPIDDNGKALQFIFSSKQYISTGGVPVGTATTNVYRNPNFKAGMKSITSPSCSPDEVIFSPDVHQALYCHLLSGILFRDQVQYVFAVFAHGLVHAFRTFEQVWEEIVTDIKDGVLSNRITVPSVRTAMSKLLTPNPELAETIRTKCMSLSNWYGLIPALFPNAKYVYGIMTGSMEPYVPKLRHYAGDLPLVSHDYGSSEGWIAANVTPRLSPEEATFAVIPNLGYFEFLPVSETGEGEEKPVGLTQVKIGEEYEVVITNYAGLYRYRLGDVVKVIGFYNNTPQLKFICRRNLILSINIDKNTERDLQLSVESAAKRLSEEKIEVIDFSSYIDVSTDPGHYAIFWEISGETNEDVLQDCCNCLDRAFIDAGYVSSRKCKTIGALELRVVAKGTFRKIQEHFLGLGSSAGQFKMPRCVKPSNAKVLQILCENVVSSYFSTAF
With B3, in test [2], the “Detected auxin conjugates: IAA-Asp” value is given as “No” and the “Detected auxin conjugates: IAA-Glu” value is “No”. Also, in test [3], the “Detected auxin conjugates: 2,4-D-Asp” value is “No” and the “Detected auxin conjugates: 2,4-D-Glu” value was “No”. In addition, in test [4], the “Detected auxin conjugates: Dicamba-Asp” value is “No” and the “Detected auxin conjugates: Dicamba-Glu” value is reported as “No”.

(Values after US20150351390A1, “COMPOSITIONS AND METHODS FOR AUXIN-ANALOG CONJUGATION” (PIONEER HI-BRED INTERNATIONAL, INC., priority 2012, published 2015).)
